Measurements from patent US20100099561A1, “HETEROBICYCLIC ALKYLTHIO-BRIDGED ISOXAZOLINES” (E.I. DU PONT DE NEMOURS AND COMPANY, priority 2008, published 2010).

Key:
Assay type in all cases: in vivo
corn (Zea mays) [1] = assay: Test A preemergence, corn; settings: 0 to 100 scale (0 no effect, 100 complete control)
Summary of the method: (§1)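 Sow seeds in loam–sand blend; spray soil directly (pre) and treat emerged one- to two-leaf plants 2–10 cm tall (post) with compound in surfactant-containing non-phytotoxic solvent. Keep in greenhouse about ten days. Score injury visually against controls from 0 to 100.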

[2] = test system: barnyardgrass (Echinochloa crus-galli); assay: Test B flooded paddy test, barnyardgrass; settings: Flood
Summary of the method: (§2)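 Rice, umbrella sedge, ducksalad and barnyardgrass at 2-leaf stage; pots flooded to 3 cm, compounds applied into paddy water, depth held throughout. Greenhouse 13 to 15 days, then visual rating vs untreated controls on 0–100 scale (0 no effect, 100 complete control); dash means no test result.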

[3] = test system: large crabgrass (Digitaria sanguinalis); assay: Test A postemergence, large crabgrass; settings: 0 to 100 scale (0 no effect, 100 complete control)
Summary of the method: as §1

[4] = test system: barnyardgrass (Echinochloa crus-galli); assay: Test A postemergence, barnyardgrass; settings: 0 to 100 scale (0 no effect, 100 complete control)
Summary of the method: as §1

[5] = test system: ducksalad (Heteranthera limosa); assay: Test B flooded paddy test, ducksalad; settings: Flood, scale 0 to 100
Summary of the method: as §2

[6] = test system: pigweed (Amaranthus retroflexus); assay: Test A preemergence, pigweed; settings: 0 to 100 scale (0 no effect, 100 complete control)
Summary of the method: as §1

[7] = test system: wheat (Triticum aestivum); assay: Test A preemergence, wheat; settings: 0 to 100 scale (0 no effect, 100 complete control)
Summary of the method: as §1

[8] = test system: wheat (Triticum aestivum); assay: Test A postemergence, wheat; settings: 0 to 100 scale (0 no effect, 100 complete control)
Summary of the method: as §1

[9] = test system: barnyardgrass (Echinochloa crus-galli); assay: Test A preemergence, barnyardgrass; settings: 0 to 100 scale (0 no effect, 100 complete control)
Summary of the method: as §1

[10] = test system: giant foxtail (Setaria faberi); assay: Test A preemergence, giant foxtail; settings: 0 to 100 scale (0 no effect, 100 complete control)
Summary of the method: as §1

[11] = test system: morningglory (Ipomoea spp.); assay: Test A postemergence, morningglory; settings: 0 to 100 scale (0 no effect, 100 complete control)
Summary of the method: as §1

rice (Oryza sativa) = assay: Test B flooded paddy test, rice; settings: Flood, scale 0 to 100
Summary of the method: as §2

[12] = test system: morningglory (Ipomoea spp.); assay: Test A preemergence, morningglory; settings: 0 to 100 scale (0 no effect, 100 complete control)
Summary of the method: as §1

corn (Zea mays) [13] = assay: Test A postemergence, corn; settings: 0 to 100 scale (0 no effect, 100 complete control)
Summary of the method: as §1

[14] = test system: umbrella sedge (Cyperus difformis); assay: Test B flooded paddy test, umbrella sedge; settings: Flood, scale 0 to 100
Summary of the method: as §2

[15] = test system: giant foxtail (Setaria faberi); assay: Test A postemergence, giant foxtail; settings: 0 to 100 scale (0 no effect, 100 complete control)
Summary of the method: as §1

[16] = test system: velvetleaf (Abutilon theophrasti); assay: Test A postemergence, velvetleaf; settings: 0 to 100 scale (0 no effect, 100 complete control)
Summary of the method: as §1

[17] = test system: large crabgrass (Digitaria sanguinalis); assay: Test A preemergence, large crabgrass; settings: 0 to 100 scale (0 no effect, 100 complete control)
Summary of the method: as §1

[18] = test system: pigweed (Amaranthus retroflexus); assay: Test A postemergence, pigweed; settings: 0 to 100 scale (0 no effect, 100 complete control)
Summary of the method: as §1

[19] = test system: velvetleaf (Abutilon theophrasti); assay: Test A preemergence, velvetleaf; settings: 0 to 100 scale (0 no effect, 100 complete control)
Summary of the method: as §1

[20] = 250 g ai/ha, scale 0 to 100 (0 no effect, 100 complete control)

CC1(C)CC([S+]([O-])Cc2c(C(F)(F)F)nc3n(c2=O)CCS3)=NO1 (stereo not drawn) [Compound 5]
Plant response rating, Corn (corn (Zea mays) [1]; 125 g ai/ha): 0
Plant response rating, Corn (corn (Zea mays) [1]; 500 g ai/ha): 0
Plant response rating, Barnyardgrass ([2]; 62 g ai/ha, scale 0 to 100): 10
Plant response rating, Barnyardgrass [2, 20]: 30
Plant response rating, Crabgrass, Large ([3]; 125 g ai/ha): 10
Plant response rating, Crabgrass, Large ([3]; 500 g ai/ha): 70
Plant response rating, Barnyardgrass ([4]; 125 g ai/ha): 30
Plant response rating, Barnyardgrass ([4]; 500 g ai/ha): 60
Plant response rating, Ducksalad ([5]; 62 g ai/ha): 0
Plant response rating, Ducksalad ([5]; 250 g ai/ha): 20
Plant response rating, Pigweed ([6]; 125 g ai/ha): 40
Plant response rating, Pigweed ([6]; 500 g ai/ha): 60
Plant response rating, Wheat ([7]; 125 g ai/ha): 0
Plant response rating, Wheat ([7]; 500 g ai/ha): 0
Plant response rating, Wheat ([8]; 125 g ai/ha): 0
Plant response rating, Wheat ([8]; 500 g ai/ha): 0
Plant response rating, Barnyardgrass ([9]; 125 g ai/ha): 0
Plant response rating, Barnyardgrass ([9]; 500 g ai/ha): 70
Plant response rating, Foxtail, Giant ([10]; 125 g ai/ha): 30
Plant response rating, Foxtail, Giant ([10]; 500 g ai/ha): 80
Plant response rating, Morningglory ([11]; 125 g ai/ha): 0
Plant response rating, Morningglory ([11]; 500 g ai/ha): 0
Plant response rating, Rice (rice (Oryza sativa); 62 g ai/ha): 0
Plant response rating, Rice (rice (Oryza sativa); 250 g ai/ha): 0
Plant response rating, Morningglory ([12]; 125 g ai/ha): 0
Plant response rating, Morningglory ([12]; 500 g ai/ha): 0
Plant response rating, Corn (corn (Zea mays) [13]; 125 g ai/ha): 0
Plant response rating, Corn (corn (Zea mays) [13]; 500 g ai/ha): 30
Plant response rating, Sedge, Umbrella ([14]; 62 g ai/ha): 0
Plant response rating, Sedge, Umbrella ([14]; 250 g ai/ha): 45
Plant response rating, Foxtail, Giant ([15]; 125 g ai/ha): 40
Plant response rating, Foxtail, Giant ([15]; 500 g ai/ha): 70
Plant response rating, Velvetleaf ([16]; 125 g ai/ha): 0
Plant response rating, Velvetleaf ([16]; 500 g ai/ha): 40
Plant response rating, Crabgrass, Large ([17]; 125 g ai/ha): 40
Plant response rating, Crabgrass, Large ([17]; 500 g ai/ha): 80
Plant response rating, Pigweed ([18]; 125 g ai/ha): 0
Plant response rating, Pigweed ([18]; 500 g ai/ha): 10
Plant response rating, Velvetleaf ([19]; 125 g ai/ha): 0
Plant response rating, Velvetleaf ([19]; 500 g ai/ha): 0

CC1(C)CC(S(=O)(=O)Cc2c(C(F)(F)F)nc3cccnn3c2=O)=NO1 [Compound 45]
Plant response rating, Corn (corn (Zea mays) [1]; 125 g ai/ha): 0
Plant response rating, Corn (corn (Zea mays) [1]; 500 g ai/ha): 0
Plant response rating, Barnyardgrass ([2]; 31 g ai/ha, scale 0 to 100): 0
Plant response rating, Barnyardgrass ([2]; 62 g ai/ha, scale 0 to 100): 0
Plant response rating, Barnyardgrass ([2]; 125 g ai/ha, scale 0 to 100): 0
Plant response rating, Barnyardgrass [2, 20]: 0
Plant response rating, Crabgrass, Large ([3]; 125 g ai/ha): 20
Plant response rating, Crabgrass, Large ([3]; 500 g ai/ha): 70
Plant response rating, Barnyardgrass ([4]; 125 g ai/ha): 30
Plant response rating, Barnyardgrass ([4]; 500 g ai/ha): 70
Plant response rating, Ducksalad ([5]; 31 g ai/ha): 0
Plant response rating, Ducksalad ([5]; 62 g ai/ha): 0
Plant response rating, Ducksalad ([5]; 125 g ai/ha): 0
Plant response rating, Ducksalad ([5]; 250 g ai/ha): 0
Plant response rating, Pigweed ([6]; 500 g ai/ha): 0
Plant response rating, Wheat ([7]; 125 g ai/ha): 0
Plant response rating, Wheat ([7]; 500 g ai/ha): 10
Plant response rating, Wheat ([8]; 125 g ai/ha): 0
Plant response rating, Wheat ([8]; 500 g ai/ha): 0
Plant response rating, Barnyardgrass ([9]; 125 g ai/ha): 20
Plant response rating, Barnyardgrass ([9]; 500 g ai/ha): 90
Plant response rating, Foxtail, Giant ([10]; 125 g ai/ha): 30
Plant response rating, Foxtail, Giant ([10]; 500 g ai/ha): 90
Plant response rating, Morningglory ([11]; 125 g ai/ha): 0
Plant response rating, Morningglory ([11]; 500 g ai/ha): 30
Plant response rating, Rice (rice (Oryza sativa); 31 g ai/ha): 0
Plant response rating, Rice (rice (Oryza sativa); 62 g ai/ha): 0
Plant response rating, Rice (rice (Oryza sativa); 125 g ai/ha): 0
Plant response rating, Rice (rice (Oryza sativa); 250 g ai/ha): 0
Plant response rating, Morningglory ([12]; 125 g ai/ha): 0
Plant response rating, Morningglory ([12]; 500 g ai/ha): 0
Plant response rating, Corn (corn (Zea mays) [13]; 125 g ai/ha): 0
Plant response rating, Corn (corn (Zea mays) [13]; 500 g ai/ha): 0
Plant response rating, Sedge, Umbrella ([14]; 31 g ai/ha): 0
Plant response rating, Sedge, Umbrella ([14]; 62 g ai/ha): 0
Plant response rating, Sedge, Umbrella ([14]; 125 g ai/ha): 0
Plant response rating, Sedge, Umbrella ([14]; 250 g ai/ha): 0
Plant response rating, Foxtail, Giant ([15]; 125 g ai/ha): 20
Plant response rating, Foxtail, Giant ([15]; 500 g ai/ha): 60
Plant response rating, Velvetleaf ([16]; 125 g ai/ha): 0
Plant response rating, Velvetleaf ([16]; 500 g ai/ha): 0
Plant response rating, Crabgrass, Large ([17]; 125 g ai/ha): 20
Plant response rating, Crabgrass, Large ([17]; 500 g ai/ha): 90
Plant response rating, Pigweed ([18]; 125 g ai/ha): 0
Plant response rating, Pigweed ([18]; 500 g ai/ha): 10
Plant response rating, Velvetleaf ([19]; 125 g ai/ha): 0
Plant response rating, Velvetleaf ([19]; 500 g ai/ha): 0
